We go through three molecules from PMC11788822, “Uncovering the potent antimicrobial activity of squaramide based anionophores – chloride transport and membrane disruption” (Chemical Science, 2025).

Each structure is given as a SMILES string. Several values for one entry are separate records, joined by “and”; a condition that tells them apart may be missing. Identical values can stand only once. Like-named read-outs stand apart in the source and are kept apart here. Marks after values point to notes of the source that are not given here.

Assay [1] has as its system S. aureus. As to the kind of experiment: Modified MTT assay of cellular respiration. The assay is classed as cell-based, Staphylococcus aureus. The note with it: HBSS, Cl− free HBSS or Na+ free HBSS buffer, 5 h treatment. An excerpt:
To further probe the relationship between anion homeostasis and antimicrobial effect, a modified MTT assay was used next to monitor disruption of cellular respiration in the presence of 1, 2, or 4 either with abundant Cl^− and Na^+, in the absence of Cl^−, or in the absence of Na^+ (Fig. 3). […] Chew and co-workers have reported on the behaviours, and dynamics of adamantylamines in the lipid bilayers, and discussed that adamantylamines show a preferential accumulation in the interfacial layer of lipid bilayers[46] and thus we suspected that these compounds, with an identical pharmacophore may behave in a similar manner accumulating in lipid bilayers of bacterial membranes.[47,48] […]
or measured over the course of 2 hrs, starting at T0 (upon addition of compound).
Alternatively, 200 µL aliquots of cell suspension were added to a 96-well plate, to the desired quantity, and were either untreated (control), or treated with the compound of interest for 5 mins, whereafter fluorescence was read using a BMG Labtech Clariostar Plus platereader, and plotted relative to control.
From an overnight culture of S. aureus brought to stationary phase (OD600 = ~1.0), was taken samples which were diluted to an OD600 = ~0.2 in either Hank’s buffered salt solution, Cl- free HBSS buffer, or Na+ free buffer. Samples were treated with the respective compound for 5 h at 37 0C. Subsequently, Cell densities for each of the samples were standardised to an OD600 = 0.15, in the relevant buffer system. To each sample was added Triphenyl Tetrazolium Chloride (TTC), to a final concentration of 0.5 mg/mL. 100 µL of each sample was placed into the wells of a 96-well place in 8 replicates. Samples were incubated at 37 0C for 18 h, and subsequently supernatant was removed from each well, taking care as to not disturb the Formazan precipitate. To each well was then added 100 µL DMSO, with repeated pipetting to solubilise precipitate. Samples were read using a microplate reader at 550 nm & plotted as percentage cell viability relative to control. […]

For assay [2], the system named is S. aureus. As to the kind of experiment: Growth inhibition assay, S. aureus. The class given is cell-based, Staphylococcus aureus. As to conditions: Staphylococcus aureus, 24 h, growth (OD 600 nm) relative to control, 37 °C. The protocol:
To determine IC50/80 values, growth (optical density) of S. aureus, methicillin-resistant S. aureus (MRSA), P. aeruginosa, and K. pneumoniae when treated with a range of concentrations of each active compound in vitro was measured at 600 nm after a 24 h incubation period at 37 °C. Each compound was studied for activity below […], and those showing little activity above 200 μM, were noted as such, and omitted from further study.
Staphylococcus aureus culture conditions
S. aureus (ATCC33951) was cultured at 37 °C in Nutrient broth (Oxoid), in an orbital shaker at 200 rpm. Stocks were kept on nutrient agar, stored at 4 °C for up to 2 months, or as glycerol stocks (50/50 glycerol:culture), stored at -70 °C indefinitely. […]
Bacterial cultures were brought to early stationary phase overnight, in nutrient broth (containing 25/50 µg/mL Ampicillin for MRSA/K. pneumoniae, respectively) at 37 °C. Cultures were diluted to an OD600 = 0.01. Aliquots of Culture (100 µl) were added to 100 µL serially diluted compound (200 – 0.78 µM) in nutrient broth in a 96-well plate (Sarstedt, Germany).
Plates were incubated at 37 °C for 24 h and growth was measured at 600 nm, where growth was measured and represented relative to control. […]

Assay [3] in a line: Lucigenin Cl−/NO3− exchange assay in LUVs. As to conditions: Cl− transport, 0.4 mM POPC/cholesterol 7:3 LUVs, Hill fit at 270 s. The protocol: Given our objective was to use such transport behaviour as a method to disrupt anion homeostasis in bacteria, we also conducted anion transport assays in Large Unilamellar Liposomes (LUVs) using the well-established Lucigenin-based Cl^−/NO3^− exchange assay.[40] Briefly, LUVs containing the chloride sensitive dye lucigenin in a NaNO3 solution were prepared and a NaCl pulse was added to create a chloride concentration gradient. Upon addition of the putative transporter, the quenching of the fluorescence of lucigenin was monitored over time to assess Cl^− influx.
Lucigenin Cl-/NO3- anion exchange assay
LUV preparation and Lucigenin assays were carried out following procedures outlined by Valkenier and co-workers.8 Large unilamellar liposomes (LUVs) were synthesized using 1-palmitoyl-2-oleoyl-sn-glycero-3-phosphocholine (POPC)(11.2 µmol, soln. in CHCl3) and Cholesterol (4.8 µmol) mixed in a ratio of 7:3. This mixture was brought to dryness under gentle vacuum and subsequently, the mixture was rehydrated in an aqueous Lucigenin solution (1 mL, 0.8mM lucigenin in 225 mM NaNO3) and stirred for 1 h to obtain heterogeneous vesicles. After that, the vesicles underwent 9 freeze-thaw cycles and were extruded through a […] polycarbonate membrane 29 times to obtain monodisperse LUVs. A Sephadex G-100 size-exclusion column was employed to remove any unencapsulated lucigenin. The collected liposomes were diluted to 40 mL with 225 mM NaNO3 to obtain a homogeneous 0.4 mM liposome solution. Lucigenin fluorescence quenching was monitored in a time dependent manner using an Agilent Spectrofluorimeter to access Cl- influx (λ ex = 430 nm, λem = 505 nm).
Cl- transport behaviour was initiated at t=0 s by adding each compound as a solvate in DMSO followed by a 25 mM NaCl pulse (75µL, 1 M NaCl in […] NaNO3) to a 3 mL liposome solution. The data was collected for at least 600 s and then Triton X-100 (5% w/w in water) was added to lyse the liposomes, and normalize to 100% efflux. The recorded data was normalised and the fraction fluorescence intensity at 270 s of each tested concentration of transporters (mol%) was plotted against transporter concentration (mol%). The data obtained was fitted to the Hill equation to obtain the EC50 value at 270 s (the concentration to obtain the half maximum effect) by using Originlab 2024b or Graphpad Prism 10:
y = START + (END ‒ START) ∗ xn/(kn + xn)
Where n is the Hill coefficient, k presents the EC 50 value.

On the set-up of assay [4]: method as in PMID 34709282. The note with it: Cl− transport; Reported by Gale and co-workers; cited from earlier work.

Take `O=c1c(Nc2ccc(Cl)c(Cl)c2)c(NC23CC4CC(CC(C4)C2)C3)c1=O` [Compound 2]: the “effect on cellular respiration (MTT)” value in assay [1] was “concentration dependent decrease in cellular respiration”. In assay [2], it took 250 µM to reach the 80% level (IC80) and the IC50 was 62.5 µM. For the same molecule, the “EC50 (mol%)” value in assay [3] is given as 0.0993 mol%.
`O=c1c(Nc2ccc([N+](=O)[O-])cc2)c(NC23CC4CC(CC(C4)C2)C3)c1=O` [Compound 4]: the “EC50 (mol%)” value in assay [4] is given as 0.031 ^a mol%. Moreover, the “effect on cellular respiration (MTT)” value in assay [1] was “concentration dependent decrease in cellular respiration”. Also, the IC50 in assay [2] was determined as 170 µM.
With `O=c1c(Nc2cc(C(F)(F)F)cc(C(F)(F)F)c2)c(NC23CC4CC(CC(C4)C2)C3)c1=O` [Compound 1], the “effect on cellular respiration (MTT)” value in assay [1] is listed as “concentration dependent decrease in cellular respiration”. Further, in assay [2], the IC80 is about 200 µM and inhibition was half-maximal at 0.781 µM (IC50). Also, the “EC50 (mol%)” value in assay [3] is 0.0836 mol% and 0.084 mol%.
